Where a name gives a salt, the structure may show the parent alone.
Target: T1, AR (androgen receptor) protein in VCaP cells (Homo sapiens, UniProt P10275)
T1 construct: endogenous in cells; host or cells: VCaP cells
T1 sequence (P10275 1-920): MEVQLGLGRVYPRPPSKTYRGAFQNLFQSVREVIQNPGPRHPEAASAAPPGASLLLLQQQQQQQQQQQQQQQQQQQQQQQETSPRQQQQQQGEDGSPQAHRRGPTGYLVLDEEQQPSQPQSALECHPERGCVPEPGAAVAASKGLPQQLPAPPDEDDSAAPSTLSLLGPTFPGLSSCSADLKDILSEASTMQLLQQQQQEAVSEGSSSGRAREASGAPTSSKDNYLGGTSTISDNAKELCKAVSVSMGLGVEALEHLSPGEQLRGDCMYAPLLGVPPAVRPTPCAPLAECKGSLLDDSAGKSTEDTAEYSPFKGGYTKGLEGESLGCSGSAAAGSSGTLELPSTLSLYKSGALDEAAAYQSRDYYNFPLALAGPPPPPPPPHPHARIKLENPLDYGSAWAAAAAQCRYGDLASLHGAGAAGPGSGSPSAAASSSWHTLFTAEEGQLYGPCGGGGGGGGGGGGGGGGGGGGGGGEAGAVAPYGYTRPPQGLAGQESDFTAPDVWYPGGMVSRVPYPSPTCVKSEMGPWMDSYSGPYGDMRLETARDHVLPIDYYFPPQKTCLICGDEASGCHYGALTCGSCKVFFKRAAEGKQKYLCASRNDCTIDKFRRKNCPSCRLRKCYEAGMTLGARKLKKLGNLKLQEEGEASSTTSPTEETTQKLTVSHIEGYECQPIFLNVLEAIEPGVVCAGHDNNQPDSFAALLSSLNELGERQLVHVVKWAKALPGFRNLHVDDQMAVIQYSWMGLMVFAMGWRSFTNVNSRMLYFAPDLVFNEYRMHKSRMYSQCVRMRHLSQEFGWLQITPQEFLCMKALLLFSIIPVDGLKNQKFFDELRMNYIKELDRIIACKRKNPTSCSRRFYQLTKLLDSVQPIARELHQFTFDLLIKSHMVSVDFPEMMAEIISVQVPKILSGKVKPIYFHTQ
Experiment: VCAP AR Degradation Assay
Assay type: cell-based
Details: 24 h, AR ELISA; for DC50: concentration of compound when AR level = 50% of DMSO control; for remaining activity at up to 5 µM: top concentration 5 μM, read-out: Y (lowest measured AR level normalized to DMSO control, AR degradation efficiency)
Experimental: VCAP AR Degradation Assay. Test compounds were pre-dispensed into a Corning CellBind 96-well clear bottom plate (Cat #3300) using an acoustic dispenser to make a 10-point concentration series at 1:3 dilution for each compound. The final top concentration of each compound was 5 μM. DMSO at a final concentration of 0.1% was used as a control. VCaP cells cultured in DMEM with 8% fetal bovine serum (FBS) were seeded at 50K cells per well in a 200 μL volume into the compound plate and incubated at 37° C. in a CO2 incubator for 24 h. The medium was carefully removed from the cells and the plate was placed on ice. One hundred μL of ice-cold 1× cell lysis buffer from Cell Signaling Technologies (Cat #9803) was added to each well of the cells and the plate was incubated at 4° C. on a shaker for 1 h. Fifteen μL of cell lysate was used for AR ELISA detection using a PathScan Total Sandwich AR ELISA kit (Cell Signaling Technology, Cat #12580). AR levels in compound-treated wells were normalized to that of DMSO control and expressed as percent of control (PoC) (y). A Four Parameter Logistic Model (Sigmoidal Dose-Response Model) was used to determine the compound's DC50, and EC50, using the following equation: y=(A+((B−A)/(1+((C/x)^D)))) • A=YMin (lowest AR level normalized to DMSO control in response to compound treatment, as determined by curve fit) • B=YMax (maximum AR level as determined by curve fit) • C=EC50 • D=Hill Slope • x=compound concentration • EC50=the concentration of compound when y=(YMax−YMin)/2 • DC50=the concentration of the compound when y=50% of DMSO control (50% AR degradation) • y=AR protein level normalized to DMSO control
The lowest measured AR level normalized to DMSO control in response to compound treatment, termed Y value, was used to characterize the compound-mediated AR degradation efficiency.

Cn1nc(C2CCC(=O)NC2=O)c2cccc(NC(=O)CN3CCN(CCO[C@H]4CC[C@H](N5C(=S)N(c6cnc(C#N)c(C(F)(F)F)c6)C(=O)C5(C)C)CC4)C[C@@H]3C(F)(F)F)c21 (stereo partly drawn) [Cmpd 22, 2-((R)-4-(2-(((trans)-4-(3-(6-Cyano-5-(trifluoromethyl)pyridin-3-yl)-5,5-dimethyl-4-oxo-2-thioxoimidazolidin-1-yl)cyclohexyl)oxy)ethyl)-2-(trifluoromethyl)piperazin-1-yl)-N-(3-(2,6-dioxopiperidin-3-yl)-1-methyl-1H-indazol-7-yl)acetamide]
DC50: < 2 nM
remaining activity at up to 5 µM: 0 to 25%

C[C@@H]1CN(CCCO[C@H]2CC[C@H](N3C(=S)N(c4ccc(C#N)c(Cl)c4)C(=O)C3(C)C)CC2)C[C@H](C)N1CC(=O)Nc1cccc2c(C3CCC(=O)NC3=O)nn(C)c12 (stereo partly drawn) [Cmpd 5, 2-((2R,6S)-4-(3-((trans-4-(3-(3-Chloro-4-cyanophenyl)-5,5-dimethyl-4-oxo-2-thioxoimidazolidin-1-yl)cyclohexyl)oxy)propyl)-2,6-dimethylpiperazin-1-yl)-N-(3-(2,6-dioxopiperidin-3-yl)-1-methyl-1H-indazol-7-yl)acetamide hydrochloride]
DC50: < 2 nM
remaining activity at up to 5 µM: 30 to 50%

C[C@@H]1C[C@H](OCCC[C@H]2CC[C@H](N3C(=S)N(c4cnc(C#N)c(C(F)(F)F)c4)C(=O)C3(C)C)CC2)C[C@H](C)N1CC(=O)Nc1cccc2c(C3CCC(=O)NC3=O)nn(C)c12 (stereo partly drawn) [Cmpd 24, 2-((2R,4r,6S)-4-(3-((trans)-4-(3-(6-Cyano-5-(trifluoromethyl)pyridin-3-yl)-5,5-dimethyl-4-oxo-2-thioxoimidazolidin-1-yl)cyclohexyl)propoxy)-2,6-dimethylpiperidin-1-yl)-N-(3-(2,6-dioxopiperidin-3-yl)-1-methyl-1H-indazol-7-yl)acetamide]
DC50: 5 to 20 nM
remaining activity at up to 5 µM: 0 to 25%

C[C@@H]1C[C@H](OCCO[C@H]2CC[C@H](N3C(=S)N(c4ccc(C#N)c(C(F)(F)F)c4)C(=O)C3(C)C)CC2)C[C@H](C)N1CC(=O)Nc1cccc2c(C3CCC(=O)NC3=O)nn(C)c12 (stereo partly drawn) [Cmpd 27, 2-((2R,4r,6S)-4-(2-(((trans)-4-(3-(4-Cyano-3-(trifluoromethyl)phenyl)-5,5-dimethyl-4-oxo-2-thioxoimidazolidin-1-yl)cyclohexyl)oxy)ethoxy)-2,6-dimethylpiperidin-1-yl)-N-(3-(2,6-dioxopiperidin-3-yl)-1-methyl-1H-indazol-7-yl)acetamide]
DC50: 2 to 5 nM
remaining activity at up to 5 µM: 25 to 30%

C[C@@H]1CN(CCCO[C@H]2CC[C@H](N3C(=S)N(c4ccc(C#N)c(C(F)(F)F)c4)C(=O)C3(C)C)CC2)C[C@H](C)N1CC(=O)Nc1cccc2c(C3CCC(=O)NC3=O)nn(C)c12 (stereo partly drawn) [Cmpd 8, 2-((2R,6S)-4-(3-((trans-4-(3-(4-Cyano-3-(trifluoromethyl)phenyl)-5,5-dimethyl-4-oxo-2-thioxoimidazolidin-1-yl)cyclohexyl)oxy)propyl)-2,6-dimethylpiperazin-1-yl)-N-(3-(2,6-dioxopiperidin-3-yl)-1-methyl-1H-indazol-7-yl)acetamide]
DC50: < 2 nM
remaining activity at up to 5 µM: 25 to 30%

C[C@@H]1CN(CCCC[C@H]2CC[C@H](N3C(=S)N(c4ccc(C#N)c(C(F)(F)F)c4)C(=O)C3(C)C)CC2)C[C@H](C)N1CC(=O)Nc1cccc2c(C3CCC(=O)NC3=O)nn(C)c12 (stereo partly drawn) [Cmpd 19, 2-((2S,6R)-4-(4-((trans)-4-(3-(4-Cyano-3-(trifluoromethyl)phenyl)-5,5-dimethyl-4-oxo-2-thioxoimidazolidin-1-yl)cyclohexyl)butyl)-2,6-dimethylpiperazin-1-yl)-N-(3-(2,6-dioxopiperidin-3-yl)-1-methyl-1H-indazol-7-yl)acetamide]
DC50: 2 to 5 nM
remaining activity at up to 5 µM: 0 to 25%

C[C@@H]1CN(CCO[C@H]2CC[C@H](N3C(=S)N(c4ccc(C#N)c(C(F)(F)F)c4)C(=O)C3(C)C)CC2)C[C@H](C)N1CC(=O)Nc1cccc2c(C3CCC(=O)NC3=O)nn(C)c12 (stereo partly drawn) [Cmpd 1, 2-((2S,6R)-4-(2-((trans-4-(3-(4-Cyano-3-(trifluoromethyl)phenyl)-5,5-dimethyl-4-oxo-2-thioxoimidazolidin-1-yl)cyclohexyl)oxy)ethyl)-2,6-dimethylpiperazin-1-yl)-N-(3-(2,6-dioxopiperidin-3-yl)-1-methyl-1H-indazol-7-yl)acetamide hydrochloride]
DC50: < 2 nM
remaining activity at up to 5 µM: 0 to 25%

Cn1nc(C2CCC(=O)NC2=O)c2cccc(NC(=O)CN3CCN(CCC[C@H]4CC[C@H](N5C(=S)N(c6cnc(C#N)c(C(F)(F)F)c6)C(=O)C5(C)C)CC4)C[C@@H]3C(F)(F)F)c21 (stereo partly drawn) [Cmpd 17, 2-((R)-4-(3-((trans)-4-(3-(6-Cyano-5-(trifluoromethyl)pyridin-3-yl)-5,5-dimethyl-4-oxo-2-thioxoimidazolidin-1-yl)cyclohexyl)propyl)-2-(trifluoromethyl)piperazin-1-yl)-N-(3-(2,6-dioxopiperidin-3-yl)-1-methyl-1H-indazol-7-yl)acetamide]
DC50: 2 to 5 nM
remaining activity at up to 5 µM: 0 to 25%

C[C@@H]1C[C@H](CCO[C@H]2CC[C@H](N3C(=S)N(c4ccc(C#N)c(C(F)(F)F)c4)C(=O)C3(C)C)CC2)C[C@H](C)N1CC(=O)Nc1cccc2c(C3CCC(=O)NC3=O)nn(C)c12 (stereo partly drawn) [Cmpd 13, 2-((2R,4r,6S)-4-(2-((trans-4-(3-(4-Cyano-3-(trifluoromethyl)phenyl)-5,5-dimethyl-4-oxo-2-thioxoimidazolidin-1-yl)cyclohexyl)oxy)ethyl)-2,6-dimethylpiperidin-1-yl)-N-(3-(2,6-dioxopiperidin-3-yl)-1-methyl-1H-indazol-7-yl)acetamide hydrochloride]
DC50: 2 to 5 nM
remaining activity at up to 5 µM: 0 to 25%

C[C@@H]1C[C@H](CCO[C@H]2CC[C@H](N3C(=S)N(c4cnc(C#N)c(C(F)(F)F)c4)C(=O)C3(C)C)CC2)C[C@H](C)N1CC(=O)Nc1cccc2c(C3CCC(=O)NC3=O)nn(C)c12 (stereo partly drawn) [Cmpd 15, 2-((2R,4r,6S)-4-(2-(((trans)-4-(3-(6-Cyano-5-(trifluoromethyl)pyridine-3-yl)-5,5-dimethyl-4-oxo-2-thioxoimidazolidin-1-yl)cyclohexyl)oxy)ethyl)-2,6-dimethylpiperidin-1-yl)-N-(3-(2,6-dioxopiperidin-3-yl)-1-methyl-1H-indazol-7-yl)acetamide]
DC50: < 2 nM
remaining activity at up to 5 µM: 0 to 25%

C[C@@H]1C[C@H](OCCO[C@H]2CC[C@H](N3C(=S)N(c4cnc(C#N)c(C(F)(F)F)c4)C(=O)C3(C)C)CC2)C[C@H](C)N1CC(=O)Nc1cccc2c(C3CCC(=O)NC3=O)nn(C)c12 (stereo partly drawn) [Cmpd 28, 2-((2R,4r,6S)-4-(2-(((trans)-4-(3-(6-Cyano-5-(trifluoromethyl)pyridin-3-yl)-5,5-dimethyl-4-oxo-2-thioxoimidazolidin-1-yl)cyclohexyl)oxy)ethoxy)-2,6-dimethylpiperidin-1-yl)-N-(3-(2,6-dioxopiperidin-3-yl)-1-methyl-1H-indazol-7-yl)acetamide]
DC50: < 2 nM
remaining activity at up to 5 µM: 0 to 25%
